{"source": "patent US6900219B2", "about": "“ABCA-1 elevating compounds” (CV Therapeutics, Inc., priority 2002, dated 2005)", "data": [{"tested_on": "ABCA-1 gene", "assay": "compounds tested and found to elevate cellular expression of the ABCA-1 gene (Examples 1-6; test not named)", "type": "cell-based", "experimental": "Activity testing is conducted as described in those patents and patent applications referenced above, and in the Examples below, and by methods apparent to one skilled in the art.", "values": [{"compound": "2-[(4-methylethylphenyl)carbonylamino]-1,3-thiazoline-4-carboxylic acid", "cellular expression of the ABCA-1 gene": "elevate cellular expression of the ABCA-1 gene"}, {"compound": "2-[({2-[4-(6-chlorobenzothiazol-2-yl)piperazinyl]ethyl}oxycarbonyl)methylthio]acetic acid", "cellular expression of the ABCA-1 gene": "elevate cellular expression of the ABCA-1 gene"}, {"compound": "6-(2-aminophenyl)-3-(methylethylthio)-2H-1,2,4-triazin-5-one", "cellular expression of the ABCA-1 gene": "elevate cellular expression of the ABCA-1 gene"}, {"compound": "CCc1cc(OC(=O)c2ccco2)n(-c2cccc(Cl)c2)n1", "note": "[1-(3-chlorophenyl)-3-ethylpyrazol-5-yl furan-2-carboxylate]", "cellular expression of the ABCA-1 gene": "elevate cellular expression of the ABCA-1 gene"}, {"compound": "CCCc1c(C(=O)N2CCN(C(=O)C(CC)c3ccccc3)C(C)C2)cnn1-c1nc(-c2cccc(OC)c2)cs1", "note": "(centres unmarked) [1-(4-{1-[4-(3-methoxy-phenyl)-thiazol-2-yl]-5-propyl-1H-pyrazole-4-carbonyl}-2-methyl-piperazin-1-yl)-2-phenyl-butan-1-one]", "cellular expression of the ABCA-1 gene": "elevate cellular expression of the ABCA-1 gene"}, {"compound": "CCc1c(C(=O)N2CCN(C(=O)C(c3ccccc3)c3ccccc3)C(C)C2)cnn1-c1nc(-c2ccc(Cl)cc2)cs1", "note": "(centres unmarked) [1-(4-{1-[4-(4-chloro-phenyl)-thiazol-2-yl]-5-ethyl-1H-pyrazole-4-carbonyl}-2-methyl-piperazin-1-yl)-2,2-diphenyl-ethanone]", "cellular expression of the ABCA-1 gene": "elevate cellular expression of the ABCA-1 gene"}, {"compound": "CCc1c(C(=O)N2CCN(C(=O)C(CC)c3ccccc3)C(C)C2)cnn1-c1nc(-c2ccc(Cl)cc2)cs1", "note": "(centres unmarked) [1-(4-{1-[4-(4-chloro-phenyl)-thiazol-2-yl]-5-ethyl-1H-pyrazole-4-carbonyl}-2-methyl-piperazin-1-yl)-2-phenyl-butan-1-one]", "cellular expression of the ABCA-1 gene": "elevate cellular expression of the ABCA-1 gene"}, {"compound": "CCc1c(C(=O)N2CCN(C(=O)C(c3ccccc3)c3ccccc3)C(C)C2)cnn1-c1nc(-c2ccc(OC)cc2)cs1", "note": "(centres unmarked) [1-(4-{5-ethyl-1-[4-(4-methoxy-phenyl)-thiazol-2-yl]-1H-pyrazole-4-carbonyl}-2-methyl-piprazin-1-yl)-2,2-diphenyl-ethanone]", "cellular expression of the ABCA-1 gene": "elevate cellular expression of the ABCA-1 gene"}, {"compound": "CCc1c(C(=O)N2CCN(C(=O)C(C)C)C(C)C2)cnn1-c1nc(-c2ccc(OC)cc2)cs1", "note": "(centres unmarked) [1-(4-{5-ethyl-1-[4-(4-methoxy-phenyl)-thiazol-2-yl]-1H-pyrazole-4-carbonyl}-2-metyl-piperazin-1-yl)-2-methyl-propan-1-one]", "cellular expression of the ABCA-1 gene": "elevate cellular expression of the ABCA-1 gene"}, {"compound": "CCCCCCCC(=O)N1CCC2(CC1)OCCO2", "note": "[1-(8-aza-1,4-dioxaspiro[4.5]dec-8-yl)octan-1-one]", "cellular expression of the ABCA-1 gene": "elevate cellular expression of the ABCA-1 gene"}, {"compound": "O=[N+]([O-])c1ccc(OCCOc2ccc([N+](=O)[O-])cc2)cc1", "note": "[1-nitro-4-[2-(4-nitrophenoxy)ethoxy]benzene]", "cellular expression of the ABCA-1 gene": "elevate cellular expression of the ABCA-1 gene"}, {"compound": "COc1ccccc1NC(=O)N(CCc1ccccc1)C(C)c1nc2ccccc2c(=O)n1-c1ccc(Br)cc1", "note": "(centres unmarked) [1-{1-[3-(4-bromophenyl)-4-oxo-3,4-dihydro-quinazolin-2-yl]-ethyl}-3-(2-methoxy-phenyl-1-phenethylurea]", "cellular expression of the ABCA-1 gene": "elevate cellular expression of the ABCA-1 gene"}, {"compound": "COc1ccc(-c2nc3cc(/N=C/c4cccc([N+](=O)[O-])c4)ccc3o2)cc1", "note": "[1-{5-[(1E)-1-aza-2-(3-nitrophenyl)vinyl]benzoxazol-2-yl}-4-methoxybenzene]", "cellular expression of the ABCA-1 gene": "elevate cellular expression of the ABCA-1 gene"}, {"compound": "C1=C(c2ccccc2)Nc2nc3ccccc3n2C1c1ccccc1", "note": "(centres unmarked) [2,4-diphenyl-1,4,5-trihydropyrimidino[1,2-a]benzimidazole]", "cellular expression of the ABCA-1 gene": "elevate cellular expression of the ABCA-1 gene"}, {"compound": "Nc1cc(C(F)(F)F)ccc1N1CCc2ccccc2C1", "note": "[2-(2-1,2,3,4-tetrahydroisoquinolyl)-5-(trifluoromethyl)phenylamine]", "cellular expression of the ABCA-1 gene": "elevate cellular expression of the ABCA-1 gene"}, {"compound": "O=C(NC1=NC(C(=O)O)CS1)c1ccc2c(c1)OCO2", "note": "(centres unmarked) [2-(2H-benzo[3,4-d]1,3-dioxolan-5-ylcarbonylamino)-1,3-thiazoline-4-carboxylic acid]", "cellular expression of the ABCA-1 gene": "elevate cellular expression of the ABCA-1 gene"}, {"compound": "Nc1nc(-c2ccc(Cl)cc2)nc2sc3c(c12)CCCCC3", "note": "[2-(4-chlorophenyl)-5,6,7,8,9-pentahydrocyclohepta[1,2-b]pyrimidino[5,4-d]thiophene-4-ylamine]", "cellular expression of the ABCA-1 gene": "elevate cellular expression of the ABCA-1 gene"}, {"compound": "Nc1ccccc1-c1nc(-c2ccc(Cl)cc2)no1", "note": "[2-[3-(4-chlorophenyl)-1,2,4-oxadiazol-5-yl]phenylamine]", "cellular expression of the ABCA-1 gene": "elevate cellular expression of the ABCA-1 gene"}, {"compound": "CC(C)(C)c1ccc(-c2nc3cccc(F)c3c(=O)o2)cc1", "note": "[2-[4-(tert-butyl)phenyl]-5-fluorobenzo[d]1,3-oxazin-4-one]", "cellular expression of the ABCA-1 gene": "elevate cellular expression of the ABCA-1 gene"}, {"compound": "COc1ccc(/C=C/c2nc3ccccc3c(=O)[nH]2)cc1OC", "note": "[2-[(1E)-2-(3,4-dimethoxyphenyl)vinyl]-3-hydroquinazolin-4-one]", "cellular expression of the ABCA-1 gene": "elevate cellular expression of the ABCA-1 gene"}, {"compound": "O=c1oc(/C=C/c2ccc(Cl)cc2)nc2ccccc12", "note": "[2-[(1E)-2-(4-chlorophenyl)vinyl]benzo[d]1,3-oxazin-4-one]", "cellular expression of the ABCA-1 gene": "elevate cellular expression of the ABCA-1 gene"}, {"compound": "O=C(NC1=NC(C(=O)O)CS1)c1ccccc1C(F)(F)F", "note": "(centres unmarked) [2-[(2-trifluoromethylphenyl)carbonylamino]-1,3-thiazoline-4-carboxylic acid]", "cellular expression of the ABCA-1 gene": "elevate cellular expression of the ABCA-1 gene"}, {"compound": "COc1cc(C(=O)NC2=NC(C(=O)O)CS2)cc(OC)c1OC", "note": "(centres unmarked) [2-[(3,4,5-trimethoxyphenyl)carbonylamino]-1,3-thiazoline-4-carboxylic acid]", "cellular expression of the ABCA-1 gene": "elevate cellular expression of the ABCA-1 gene"}, {"compound": "O=C(NC1=NC(C(=O)O)CS1)c1ccc(Cl)c(Cl)c1", "note": "(centres unmarked) [2-[(3,4-dichlorophenyl)carbonylamino]-1,3-thiazoline-4-carboxylic acid]", "cellular expression of the ABCA-1 gene": "elevate cellular expression of the ABCA-1 gene"}, {"compound": "O=C(NC1=NC(C(=O)O)CS1)c1cc(C(F)(F)F)cc(C(F)(F)F)c1", "note": "(centres unmarked) [2-[(3,5-bistrifluoromethylphenyl)carbonylamino]-1,3-thiazoline-4-carboxylic acid]", "cellular expression of the ABCA-1 gene": "elevate cellular expression of the ABCA-1 gene"}, {"compound": "COc1cccc(C(=O)NC2=NC(C(=O)O)CS2)c1", "note": "(centres unmarked) [2-[(3-methoxyphenyl)carbonylamino]-1,3-thiazoline-4-carboxylic acid]", "cellular expression of the ABCA-1 gene": "elevate cellular expression of the ABCA-1 gene"}, {"compound": "COc1ccc(C(=O)NC2=NC(C(=O)O)CS2)cc1", "note": "(centres unmarked) [2-[(4-methoxyphenyl)carbonylamino]-1,3-thiazoline-4-carboxylic acid]", "cellular expression of the ABCA-1 gene": "elevate cellular expression of the ABCA-1 gene"}, {"compound": "Cc1ccc(C(=O)NC2=NC(C(=O)O)CS2)cc1", "note": "(centres unmarked) [2-[(4-methylphenyl)carbonylamino]-1,3-thiazoline-4-carboxylic acid]", "cellular expression of the ABCA-1 gene": "elevate cellular expression of the ABCA-1 gene"}, {"compound": "Cc1ccc2nc(-c3ccc(NC(=O)c4ccco4)cc3)sc2c1", "note": "[2-furyl-N-[4-(6-methylbenzothiazol-2-yl)phenyl]carboxamide]", "cellular expression of the ABCA-1 gene": "elevate cellular expression of the ABCA-1 gene"}, {"compound": "CS(=O)(=O)c1ccc2nc(NC(=O)c3ccco3)sc2c1", "note": "[2-furyl-N-[6-(methylsulfonyl)benzothiazol-2-yl]carboxamide]", "cellular expression of the ABCA-1 gene": "elevate cellular expression of the ABCA-1 gene"}, {"compound": "O=C(Nc1ccc2c(c1)CCC2)c1ccco1", "note": "[2-furyl-N-indan-5-ylcarboxamide]", "cellular expression of the ABCA-1 gene": "elevate cellular expression of the ABCA-1 gene"}, {"compound": "Cc1c(Nc2nc(-c3ccc4ccccc4c3)cs2)cccc1C(=O)O", "note": "[2-methyl-3-[(4-(2-naphthyl)(1,3-thiazol-2-yl))amino]benzoic acid]", "cellular expression of the ABCA-1 gene": "elevate cellular expression of the ABCA-1 gene"}, {"compound": "O=C(NCCc1ccccc1)c1ccc2ccccc2c1", "note": "[2-naphthyl-N-(2-phenylethyl)carboxamide]", "cellular expression of the ABCA-1 gene": "elevate cellular expression of the ABCA-1 gene"}, {"compound": "O=C(Nc1ncc(-c2ccccc2)s1)c1ccc2ccccc2c1", "note": "[2-naphthyl-N-(5-phenyl(1,3-thiazol-2-yl))carboxamide]", "cellular expression of the ABCA-1 gene": "elevate cellular expression of the ABCA-1 gene"}, {"compound": "O=C(Nc1nccs1)c1ccccc1C(F)(F)F", "note": "[2-trifluoromethylphenyl-N-(1,3-thiazol-2-yl)carboxamide]", "cellular expression of the ABCA-1 gene": "elevate cellular expression of the ABCA-1 gene"}, {"compound": "CC(C)(C)c1ccc(C(=O)NC2=NC(C(=O)O)CS2)cc1", "note": "(centres unmarked) [2-{[4-(tert-butyl)phenyl]carbonylamino}-1,3-thiazoline-4-carboxylic acid]", "cellular expression of the ABCA-1 gene": "elevate cellular expression of the ABCA-1 gene"}, {"compound": "O=C(Nc1cccc(Cl)c1)Nc1ccccc1C(=O)O", "note": "[2-{[N-(3-chlorophenyl)carbamoyl]amino}benzoic acid]", "cellular expression of the ABCA-1 gene": "elevate cellular expression of the ABCA-1 gene"}, {"compound": "O=C(Nc1ccc(Cl)cc1)Nc1ccccc1C(=O)O", "note": "[2-{[N-(4-chlorophenyl)carbamoyl]amino}benzoic acid]", "cellular expression of the ABCA-1 gene": "elevate cellular expression of the ABCA-1 gene"}, {"compound": "O=C(NC1=NCCS1)c1ccc2c(c1)OCO2", "note": "[2H-benzo[3,4-d]1,3-dioxolan-5-yl-N-(1,3-thiazolin-2-yl)carboxamide]", "cellular expression of the ABCA-1 gene": "elevate cellular expression of the ABCA-1 gene"}, {"compound": "CCn1c2ccccc2c2cc(CN(CCc3ccccc3)C(=O)c3ccc4c(c3)OCO4)ccc21", "note": "[2H-benzo[d]1,3-dioxolen-5-yl-N-[(9-ethylcarbazol-3-yl)methyl]-N-(2-phenylethyl)carboxamide]", "cellular expression of the ABCA-1 gene": "elevate cellular expression of the ABCA-1 gene"}, {"compound": "CCCn1c(C(CC)N(Cc2ccccc2)C(=O)CC(C)CC(C)(C)C)nc2ccccc2c1=O", "note": "(centres unmarked) [3,5,5-trimethylhexanoic acid benzyl-[1-(4-oxo-3-propyl-3,4-dihydro-quinazolin-2-yl)propyl]-amide]", "cellular expression of the ABCA-1 gene": "elevate cellular expression of the ABCA-1 gene"}]}]}
